From US20130150598A1, “USE OF 25-HYDROXY-VITAMIN D3 TO AFFECT HUMAN MUSCLE PHYSIOLOGY” (DSM IP ASSETS B.V., priority 2008, published 2013)

Tests used:
[1] = at the safe upper level of 250 μg/day; cited from earlier work
[2] = test system: C57BL/6J mice; test: Muscle hypertrophy model (gastrocnemius removal) and endurance exercise capacity test; assay type: in vivo
Source text: The objective of this study was to test the effects of 25-OH D3 in a muscle hypertrophy model and in an endurance exercise capacity test in C57BL/6J mice. It is recognized in the art that removal of the gastrocnemius muscle induces compensatory hypertrophy in the soleus and plantaris muscles by multiple mechanisms leading to improved muscle strength and leg power.
Two groups of 10 animals were anesthetized and the left hindlimb of the animals was fixed. All animals received an analgesic. A small incision was made through the skin over the gastrocnemius muscle. The complete gastrocnemius muscle and the tendons were exposed. Both heads of the gastrocnemius muscle were carefully dissected from the underlying intact muscles and care was taken not to rupture nerves and vessels. The skin was closed with a silk suture and the animals were returned into the cages. After recovering from anesthesia the animals could move directly without problems in their cages. Animals were treated for three weeks by gavage with 25-OH D3 at a daily dosage of 50 μg/kg and the control group received vehicle. At the end of the study endurance exercise capacity of all animals was tested on a rodent treadmill.

[3] = test system: healthy, postmenopausal women; test: Clinical trial: muscle strength (knee extensor and flexor strength); assay type: in vivo, human; details: 4 months; for Muscle strength, knee extension (best value), change vs. baseline / Muscle strength, knee extension (mean value), change vs. baseline / Muscle strength, knee flexion (best value), change vs. baseline / Muscle strength, knee flexion (mean value), change vs. baseline: daily 20 μg per day / weekly 140 μg per week, oral
Source text: (§1) Each group included five subjects. They are followed for four months in Zurich, Switzerland during the winter.
(§2) Equimolar quantities of both substances were investigated. […] As the maximum pre-existing baseline concentration of 25-OH D3 will be 50 nmol/L, it is not anticipated that subjects will approach the range where disturbance in Ca^2+ homeostasis has been observed.
(§3) Each dosage is consumed orally at breakfast. The duration of the study is four months for the “Daily” and “Weekly” groups. Subjects enrolled in the “Bolus” group consume orally a single dosage at the second study visit.
(§4) Muscle strength and function were assessed by the following standard performance tests: knee flexor and extensor strength, repeated sit-to-stand test and timed up & go (TUG) in Week 1 on visit 2 (baseline) and at study end on visit 15. Muscle strength was measured as knee extensor and flexor in Newtons (kiloponds). TUG is a measure of functional mobility including muscle strength, gait speed, and balance and is assessed in seconds. The repeated sit-to-stand is a functional test and measured in seconds.

[4] = test system: gastrocnemius muscle gene expression (mRNA); test: Gene chip analysis of gastrocnemius muscle in hindlimb unloaded (tail suspension) skeletal muscle atrophy model; assay type: in vivo, BalbC mice; details: for Differentially expressed muscle genes compared to HU: selected skeletal muscle genes
Source text: Initially this model was established in rats for simulating spaceflight in humans and is commonly used in other scientific fields to study the loss of skeletal muscle mass or bone. The results are considered indicative of human conditions such as sarcopenia (degenerative loss of skeletal muscle mass and strength during the process of ageing) or immobilization of skeletal muscle (e.g. after prolonged bed rest due to fractures, surgery or trauma). Methods For our study, nine month old BalbC female mice were randomized at the beginning of the study into four groups with 10 animals per group • 1. […] The animals were placed in special cages for duration of seven days; all mice were housed separately and had free access to feed and water ad libidum. […] At the end of the study the gastrocnemius muscle was taken out and directly frozen in liquid nitrogen for further analysis. […] Total RNA was isolated using the commonly used Trizol protocol. The RNA was quantified by using spectrophotometric analysis. The integrity of total RNA samples was also assessed qualitatively on an Agilent 2100 Bioanalyzer. RNA was then prepared for the one cycle cDNA synthesis. A poly-A RNA control is used for this step to provide exogenous positive controls to monitor the entire eukaryotic target labelling process. The first cDNA synthesis is done, and after the second strand cDNA synthesis the cDNA is cleaned up of double-stranded cDNA. A biotin labelled cRNA is then synthesised, cleaned up and quantified using a spectrophotometer at 260/280 nm. It is important that cRNA target is fragmented before hybridization onto a GeneChip probe arrays to obtain optimal assay sensitivity. After fragmentation the probes are hybridized on the chips (Affymetrix Mouse 430-2 chips). The chips are washed and stained in the fluidics station of Affymetrix and scanned in the gene chip scanner. The data is then transferred from the scanner for further analysis using software from Genedata (Expressionist 5.0: […] Analyst). Data interpretation and pathway analysis was done with the online version of the GeneGo Metacore package ([…] evaluates microarray data for quality issues and flags problematic measurements. It provides a set of normalization algorithms and validated condensing methods to automatically pre-process and summarize raw microarray data for subsequent statistical analysis.

[5] = test system: healthy, postmenopausal women; test: Clinical trial: muscle function (repeated sit-to-stand, timed up & go); assay type: in vivo, human; details: for Muscle function, repeated sit-to-stand, change vs. baseline / Muscle function, timed-up-and-go, change vs. baseline: daily 20 μg per day / weekly 140 μg per week, oral
Source text: as §1, §2, §3, §4

[6] = GLM least square means, % improvement adjusted for baseline strength, age, BMI
[7] = GLM least square means, % time needed adjusted for baseline function, age, BMI, 4 months

With Vitamin D as the molecule, how does the “Blood concentration of 25-hydroxyvitamin D after ingestion as dietary supplement” value [1] read?
The value was “about 200 nmol/L”.

For `C=C1CC[C@H](O)C/C1=C/C=C1\CCC[C@]2(C)[C@@H]([C@H](C)CCCC(C)(C)O)CC[C@@H]12` [25-OH D3, 25-hydroxyvitamin D3], which “Soleus-Plantaris muscle weight/body weight” value ([2]; 50 μg/kg/day gavage, 3 weeks, control 1.82) is on record?
The value was 1.94 mg/g.

What about the Soleus wet weight ([2]; 50 μg/kg/day gavage, 3 weeks, control 5.25) of the same molecule?
Its Soleus wet weight is 6.37 mg.

What about the Plantaris wet weight ([2]; 50 μg/kg/day gavage, 3 weeks, control 31.68) of the same molecule?
The Plantaris wet weight was 33.24 mg.

And the Muscle cross-sectional area ([2]; computer tomography, 50 μg/kg/day, 3 weeks, control 19.90)?
Its Muscle cross-sectional area is 20.98 mm^2.

And the “Total leg cross-sectional area” value ([2]; computer tomography, 50 μg/kg/day, 3 weeks, control 22.78)?
The value was 24.04 mm^2.

And the “Skeletal mass by computer tomography of muscle and total leg area” value ([2]; in words)?
The value was “increases skeletal mass”.

What about the “Soleus-plantaris muscle weight/body weight ratio compared to control” value ([2]; in words) of the same molecule?
The value was “increased”.

What about the “Wet weight of the soleus and plantaris muscles compared to control animals” value ([2]; in words) of the same molecule?
Its value is “increased”.

And the “Endurance exercise capacity compared to control mice” value ([2]; in words, longer running distance and time)?
The value was “increased endurance exercise capacity”.

And the Running time ([2]; rodent treadmill, 50 μg/kg/day, 3 weeks, control 37.6)?
The Running time was 41.0 min.

And the Running distance ([2]; rodent treadmill, 50 μg/kg/day, 3 weeks, control 986.0)?
Its Running distance is 1078.4 m.

What about the “Muscle strength, knee extension (best value), change vs. daily/weekly Vitamin D3” value [3, 6] of the same molecule?
Its value is 17.6%.

And the “Muscle strength, knee extension (mean value), change vs. daily/weekly Vitamin D3” value [3, 6]?
The value was 17.0%.

And the “Muscle strength, knee flexion (best value), change vs. daily/weekly Vitamin D3” value [3, 6]?
The value was 4.7%.

And the “Muscle strength, knee flexion (mean value), change vs. daily/weekly Vitamin D3” value [3, 6]?
The value was 3.1%.

And the “Muscle strength, knee extension (best value), change vs. baseline” value [3]?
The value was 13.6 Newton.

And the “Muscle strength, knee extension (mean value), change vs. baseline” value [3]?
The value was 13.0 Newton.

What about the “Muscle strength, knee flexion (best value), change vs. baseline” value [3] of the same molecule?
The value was 7.2 Newton.

What about the “Muscle strength, knee flexion (mean value), change vs. baseline” value [3] of the same molecule?
Its value is 7.9 Newton.

What about the “Share of the group's differentially expressed probe sets also differentially expressed in 25-OH D3+Vitamin D3 group” value ([4]; Venn overlap, FIG. 2 / FIG. 3) of the same molecule?
Its value is about 61%.

What about the “Differentially expressed muscle genes compared to HU” value [4] of the same molecule?
Its value is “Desmin; dystonin; myocyte enhancer factor 2A;”.

And the “Muscle function, repeated sit-to-stand, change vs. daily/weekly Vitamin D3” value [5, 7]?
Its value is 13.9%.

And the “Muscle function, timed-up-and-go, change vs. daily/weekly Vitamin D3” value [5, 7]?
The value was 8.4%.

And the “Muscle function, repeated sit-to-stand, change vs. baseline” value ([5]; 4 months)?
Its value is 0.63 s.

What about the “Muscle function, timed-up-and-go, change vs. baseline” value ([5]; 4 months) of the same molecule?
Its value is 0.27 s.

What about the “Likelihood of maintaining or improving lower extremity strength and function compared to Vitamin D3” value ([5]; unadjusted analysis across four lower extremity tests) of the same molecule?
Its value is 2.8 fold.

With `C=C1CC[C@H](O)C/C1=C/C=C1\CCC[C@]2(C)[C@@H]([C@H](C)CCCC(C)C)CC[C@@H]12` [Vitamin D3, cholecalciferol] as the molecule, how does the “Muscle strength, knee extension (best value), change vs. baseline” value [3] read?
The value was −24.8 Newton.

And the “Muscle strength, knee extension (mean value), change vs. baseline” value [3]?
Its value is −23.7 Newton.

And the “Muscle strength, knee flexion (best value), change vs. baseline” value [3]?
The value was 2.4 Newton.

And the “Muscle strength, knee flexion (mean value), change vs. baseline” value [3]?
The value was 3.6 Newton.

And the “Differentially expressed probe sets for genes against HU control group” value ([4]; 50 μg/kg/bw each, gavage twice, 7 days hindlimb unloading, Affymetrix Mouse 430-2)?
Its value is 385.

What about the “Number of the group's differentially expressed probe sets also differentially expressed in 25-OH D3+Vitamin D3 group” value ([4]; Venn overlap, FIG. 2 / FIG. 3) of the same molecule?
Its value is 177.

What about the “Share of the group's differentially expressed probe sets also differentially expressed in 25-OH D3+Vitamin D3 group” value ([4]; Venn overlap, FIG. 2 / FIG. 3) of the same molecule?
Its value is about 46%.

What about the “Expression pattern Myosin, light chain kinase (Mylk)” value ([4]; gastrocnemius, microarray signal, HU control 749) of the same molecule?
The value was 786.

What about the “Expression pattern Tropomyosin 1 (Tpm1)” value ([4]; gastrocnemius, microarray signal, HU control 1179) of the same molecule?
The value was 2199.

What about the “Expression pattern Titin (Tnt)” value ([4]; gastrocnemius, microarray signal, HU control 11353) of the same molecule?
Its value is 11354.

What about the “Expression pattern Myomesin 1 (Myom 1)” value ([4]; gastrocnemius, microarray signal, HU control 84697) of the same molecule?
The value was 99099.

What about the “Differentially expressed muscle genes compared to HU” value [4] of the same molecule?
The value was “Desmin; myoneurin; tropomyosin 1, alpha; tropomyosin”.

And the “Muscle function, repeated sit-to-stand, change vs. baseline” value ([5]; 4 months)?
Its value is 0.30 s.

And the “Muscle function, timed-up-and-go, change vs. baseline” value ([5]; 4 months)?
The value was -0.46 s.
